# According to publication PMC3681751, “Identification of a Novel Antimicrobial Peptide from Human Hepatitis B Virus Core Protein Arginine-Rich Domain (ARD)” (PLoS Pathogens, 2013):
# Residues, ends and D or L forms follow the SMILES beside them.
# Experiments:
# HEK293 cells = assay: CFSE cell proliferation assay; format: cell-based, human; conditions: 5, 25 and 100 µM for 1 hour; flow cytometry
# Protocol: To set up CFSE cell proliferation assay, 293 cells (human kidney origin) and Vero cells (monkey kidney origin) were resuspended in PBS to a final concentration of 10^6 cells/ml, before incubation with 10 µM CFSE dye (CellTrace CFSE cell proliferation kit, Invitrogen) at 37°C for 10 min. To quench the staining, ice-old culture media were then added and incubated on ice for 5 min. Labeled cells were then pelleted and washed three times by fresh medium containing 10% FBS before seeding into six well plates at a density of 3.3×10^5cells/well. After 20 h, the medium was removed and incubated with fresh medium containing 5, 25 and 100 µM HBc 147-183 for one hour (FITC-labeled ARD peptide had been largely internalized in 10 minutes after the addition of ARD peptides to the medium of HepG2 cells). Forty-eight hours later, cells were harvested and analyzed by flow cytometry (FACSCanto, BD Bioscience).
# A. baumannii TCGH45530 = format: cell-based, Acinetobacter baumannii; conditions: TCGH45530, 3 h
# Text: (§1) Clinical isolates of Pseudomonas aeruginosa (NHRI-01, NHRI-02 and NHRI-04) were obtained through the program of Taiwan Surveillance of Antimicrobial Resistance (TSAR), National Health Research Institutes (NHRI), Taiwan. Acinetobacter baumannii (ATCC 17989, ATCC 17978 CR, ATCC19606, ATCC 19606 CR, TCGH 45530 and TCGH 46709) were obtained from Tzu-Chi Buddhist General Hospital (TCGH) in Taiwan, and clinical isolates (TCGH 45530 and TCGH 46709) were identified using the Vitek system (Biomerieux Vitek, Inc., Hazelwood, MO, USA). A. baumannii is defined as multidrug-resistant, when the organism is resistant to piperacillin, piperacillin-tazobactam, ampicillin/sulbactam, imipenem, ceftazidime, gentamicin, amikacin, tetracycline, chloramphenicol, ciprofloxacin, and cotrimoxazole. Susceptibility to colistin was determined using the broth-dilution method, in accordance with the guidelines of the Clinical and Laboratory Standards Institute (CLSI).
# (§2) All peptides were purchased from Yao-Hong Biotechnology Inc. (Taipei, Taiwan). Vendors provided data of peptide characterizations, including HPLC and Mass (data not shown). Antimicrobial activity was determined as described with some modifications as detailed below. Bacteria were grown overnight in Mueller–Hinton broth (Difco) at 37°C, and during the mid-logarithmic phase, bacteria were diluted to 10^6 CFU (colony formation unit)/ml in phosphate buffer (10 mM sodium phosphate and 50 mM sodium chloride, pH 7.2). Peptides were serially diluted in the same buffer. Fifty microliter (µl) of bacteria was mixed with fifty µl of peptides at varying concentrations followed by incubation at 37°C for 3 hours without shaking. At the end of incubation, bacteria were placed on Mueller-Hinton broth agar plates, and allowed growth at 37°C overnight for measurement of minimal bactericidal concentration (MBC). […] All peptides were tested in triplicate.
# [1] = tested on: A. baumannii ATCC17978 CR; format: cell-based, Acinetobacter baumannii; conditions: colistin-resistant A. baumannii of Table 2
# Text: as §1, §2
# A. baumannii ATCC17978 = format: cell-based, Acinetobacter baumannii; conditions: text summary over the A. baumannii strains of Table 2
# Text: as §1, §2
# A. baumannii TCGH46709 = format: cell-based, Acinetobacter baumannii; conditions: TCGH46709, 3 h
# Text: as §1, §2
# A. baumannii ATCC19606 = format: cell-based, Acinetobacter baumannii; conditions: ATCC19606, 3 h
# Text: as §1, §2
# [2] = tested on: A. baumannii ATCC19606 CR; format: cell-based, Acinetobacter baumannii; conditions: Induced Colistin resistant strain; colistin susceptibility by broth-dilution (CLSI)
# Text: as §1, §2
# [3] = tested on: Staphylococcus aureus ATCC 19636; assay: Bacterial load in infected mice; format: in vivo, mouse; conditions: 10 mg/kg i.p. at 1 hour, sampled 4 hours post-inoculation, n = 5
# Protocol: Three-week old male ICR mice (19 to 21 g) were purchased from BioLASCO (Taiwan). Overnight culture of bacteria in BHI broth (Difco) was subcultured in fresh BHI broth to log phase. Inoculums were diluted in BHI broth to indicated densities. To test the acute toxicity of ARD peptide in vivo, ICR male mice were inoculated intraperitoneally (i.p.) with 10 and 20 mg/kg HBc147-183 in PBS, respectively. Each group contained 5 mice. After peptide injection, the number of dead mice was recorded daily for 7 days post-injection. To test the antimicrobial activity of the ARD peptide in vivo, all mice were inoculated i.p. with Staphylococcus aureus ATCC 19636 (4×10^6 CFU/mouse) in BHI broth. Peptide HBc147-183 (10 mg/kg) was administered i.p. at 1, 1.5 and 2 hours post-inoculation. PBS (10 ml/kg) control was administered at 1 hour post-inoculation. […] Mortality was monitored daily for 7 days post-inoculation. […] The mice were anesthetized first before transferring to the IVIS imaging system (IVIS spectrum), and luminescence was measured with an exposure time of 1 minutes or less. The image system measured the number of photons and translated the data to false color images that depicted the region of strong luminescence with red, moderate luminescence with yellow and green, and mild luminescence with blue. […] Total flux (RLU) of region of interest (ROI) was quantified by the IVIS imaging software.
smiles,measurement,setting,value
CC(C)[C@H](NC(=O)[C@@H](NC(=O)[C@@H](N)[C@@H](C)O)C(C)C)C(=O)N[C@@H](CCCNC(=N)N)C(=O)N[C@@H](CCCNC(=N)N)C(=O)N[C@@H](CCCNC(=N)N)C(=O)NCC(=O)N[C@@H](CCCNC(=N)N)C(=O)N[C@@H](CO)C(=O)N1CCC[C@H]1C(=O)N[C@@H](CCCNC(=N)N)C(=O)N[C@@H](CCCNC(=N)N)C(=O)N[C@@H](CCCNC(=N)N)C(=O)N[C@H](C(=O)N1CCC[C@H]1C(=O)N[C@@H](CO)C(=O)N1CCC[C@H]1C(=O)N[C@@H](CCCNC(=N)N)C(=O)N[C@@H](CCCNC(=N)N)C(=O)N[C@@H](CCCNC(=N)N)C(=O)N[C@@H](CCCNC(=N)N)C(=O)N[C@@H](CO)C(=O)N[C@@H](CCC(N)=O)C(=O)N[C@@H](CO)C(=O)N1CCC[C@H]1C(=O)N[C@@H](CCCNC(=N)N)C(=O)N[C@@H](CCCNC(=N)N)C(=O)N[C@@H](CCCNC(=N)N)C(=O)N[C@@H](CCCNC(=N)N)C(=O)N[C@@H](CO)C(=O)N[C@@H](CCC(N)=O)C(=O)N[C@@H](CO)C(=O)N[C@@H](CCCNC(=N)N)C(=O)N[C@@H](CCC(=O)O)C(=O)N[C@@H](CO)C(=O)N[C@@H](CCC(N)=O)C(=O)N[C@@H](CS)C(=O)O)[C@@H](C)O [HBc147-183] (H-TVVRRRGRSPRRRTPSPRRRRSQSPRRRRSQSRESQC-OH; N-terminus and C-terminus assumed),"Effect on cell proliferation (CFSE intensity, day 3 vs mock)",HEK293 cells,no significant effect
same,MBC,A. baumannii TCGH45530,2.30 µg/mL
same,MBC against all tested colistin-resistant A. baumannii,[1],0.5 to 1 µM
same,MBC against colistin-sensitive and colistin-resistant A. baumannii,A. baumannii ATCC17978,0.5 to 1 µM
same,MBC,A. baumannii TCGH46709,4.59 µg/mL
same,MBC,A. baumannii ATCC19606,2.30 µg/mL
same,MBC,[2],2.30 µg/mL
same,"Bacterial load in blood, liver and spleen",[3],~10^4 cfu/ml
same,"Reduction of bacterial load in blood, liver and spleen vs PBS control",[3]; P<0.01,100 fold
